Here are results for four compounds from patent US11401516B2, “Channel modulators” (AUCKLAND UNISERVICES LIMITED, priority 2014, dated 2022).

One data set has as its system retinal vessel leak. Nature of the data set: Retinal ischemia reperfusion (glaucoma model), vessel leak with Evan's blue dye. Type of data set: in vivo, Wistar rats. As to conditions: 4 hr post-ischemia, intravitreal. Here is the method:
(§1) The effects of chemical modification and particulate formulation delivery were measured on rats modelled for glaucoma with a retinal ischemia reperfusion. First, a retinal ischemia reperfusion model was created. A total of 121 adult male Wistar rats weighing 200 to 300 g were used for the study. Retinal ischemia was modeled in the left eye (120 mmHg for 60 min), with the right eye as the control, and then the connexin 43 modulator peptide formulations were injected intravitreally immediately as solutions in 1×PBS delivery agent. The connexin 43 modulator peptide used was SEQ-Pept5, in both its unmodified and chemically modified (didodecyl) forms. The formulations used were neat (just diluted in 1×PBS delivery media) solutions of nanoparticles or microparticles. After reperfusion, Evan's blue dye was injected intraperitoneally 4 hr after reperfusion to visualize vessel leak using confocal microscopy. Retinal whole mounts were collected at 8 hr and 28 days for Cxn43 quantitification, and 28 and 90 days for gangliol cell (RGC) density quantification.

A further data set deals with Cxn43 (Rattus norvegicus, UniProt P08050). Nature of the data set: Retinal ischemia reperfusion (glaucoma model), Cxn43 quantification. Type of data set: in vivo, Wistar rats. As to conditions: 8 hr after ischemia. The procedure: as §1
Chain of Cxn43 (P08050 2-382 limits assumed): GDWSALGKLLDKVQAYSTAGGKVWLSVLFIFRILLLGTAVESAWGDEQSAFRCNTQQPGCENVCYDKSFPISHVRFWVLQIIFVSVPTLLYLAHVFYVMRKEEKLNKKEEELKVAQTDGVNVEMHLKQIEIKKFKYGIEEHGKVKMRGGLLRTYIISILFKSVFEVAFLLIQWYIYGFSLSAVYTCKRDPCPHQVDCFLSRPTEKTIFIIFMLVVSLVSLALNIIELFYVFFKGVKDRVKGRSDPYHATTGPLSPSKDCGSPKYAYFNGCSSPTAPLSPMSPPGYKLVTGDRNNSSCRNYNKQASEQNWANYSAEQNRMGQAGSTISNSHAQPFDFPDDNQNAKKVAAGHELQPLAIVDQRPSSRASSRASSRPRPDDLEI
In a further data set the test system is Retinal ganglion cell. The data set is described as follows: Retinal ischemia reperfusion (glaucoma model), RGC count. Type of data set: in vivo, Wistar rats. The conditions noted are these: after 28 days. Here is the method: as §1
The next data set addresses T1, Connexin43 hemichannel (Homo sapiens, UniProt P17302).
T1 construct: expressed in transfected cells; host or cells: HeLa (connexin-deficient parent), Cx43IRESeGFP, puromycin selection
Nature of the data set: Whole-cell voltage clamp, Connexin43 transfected HeLa cells. Type of data set: cell-based. As to conditions: voltage steps; peptide5 100 μM; carbenoxolone and LaCl3 concentration not stated. The procedure:
Whole-cell voltage clamp studies were conducted on connexin deficient HeLa cells, Connexin43 transfected HeLa cells and isolated human cerebral microvascular endothelial cells (hCMVEC).
HeLa cells were seeded at 0.045×10^6 cells/mL on 18 mm rat collagen I coated coverslips 16-24 hours before each experiment. Cx43IRESeGFP HeLa cells were cultured overnight in DMEM supplemented with 10% FCS and 1 μg/mL Puromycin at 37° C. at 95% O2 and 5% CO2. Control Cx-deficient cells were maintained in DMEM supplmented with 10% FCS. Coverslips were transferred to a chamber continuously perfused with modified Krebs-Ringer solution containing (in mM): 140 NaCl, 5.4 KCl, 1 MgCl2, 10 mM Hepes and pH adjusted to 7.4 at room temperature. The internal pipette solution contained (in mM): 130 KCl, 10 sodium aspartate, 0.26 CaCl2, 2 EGTA, 5 tetraethylammonium-Cl, 1 MgCl, 3 MgATP, and 5 Hepes at pH 7.2; and was kept on ice. The solutions are described in Contreras J E, et al., Cell Communication and Adhesion (2003), 10:245-249. To resolve single currents in whole-cell configuration, cells with low capacitance (<10 pF) and high resistance pipettes ([…]) with a seal resistance of (>5 GOhm) were selected for recording and analysis.

Data set [1] relates to Cx43 hemichannel and pannexin channel mediated ATP release from hCMVEC cells. The data set is described as follows: In vitro ischaemia injury ATP assay. Type of data set: cell-based, human. Here is the method:
(§2) Using an in vitro ischemia injury model, the Cx43 hemichannel and pannexin channel mediated ATP release was differentiated using the connexin hemichannel blocking mimetic peptide5 at 100 μM concentration (S. J. O'Carroll, et al., Cell communication & adhesion 15, 27 (May, 2008)) and 1 mM Probenecid (W. R. Silverman et al., The Journal of biological chemistry 284, 18143 (Jul. 3, 2009)).
Human cerebral microvascular endothelial cells (hCMVEC) were trypsinised (TrypLE Express, Life technologies) and plated at a density of 0.025×10^6 cells per well in a collagen-coated 12-well plate (1 μg/cm2) a day prior to the experiment. Cells were incubated in culture medium overnight. Hypoxic, acidic, ion-shifted Ringer injury solution that mimics ionic concentrations and acid-base shifts of the interstitial space in hypoxic-ischemic brains (A. Bondarenko, et al., Glia 34, 143 (Apr. 15, 2001)) was used to trigger hemichannel opening. The injury solution (in mM): 38 NaCl, 13 NaHCO3, 3 Na-gluconate, 65 K-gluconate, 38 NMDG-Cl, 1 NaH2PO4, 1.5 MgCl2, was bubbled in N2 gas (>99% purity, 20 L/min) for 5 minutes and pH adjusted to 6.6 using 5 M HCl. Control solution that mimics physiological conditions contained (in mM): 124 NaCl, 3 KCl, 26 NaHCO3, […], 1 NaH2PO4, 1.3 CaCl2, 1.5 MgCl2, and 10 Glucose, and pH 7.4 was adjusted using 5 M HCl (Bondarenko, 2001). […] Following a 2-hour injury the solutions were immediately placed on ice. In the injury and reperfusion model, hCMVEC cells were incubated in 500 μL of normal solution or injury solution for 2 hours at 37° C. in 95% O2 and 5% CO2. Following 2 hour injury, the solutions were discarded and replaced with 500 μL of the normal solution, or Tonabersat (10 μM) dissolved in normal solution, and were incubated for 2 hours at 37° C. in 95% O2 and 5% CO2. These solutions were also then immediately placed on ice. Peptide5 (100 μM)+/−Probenecid (1 mM) were used as controls for both injury and injury-reperfusion models. ATP concentration in the samples was determined using a Luciferin/luciferase bioluminescence reaction (ATP Determination Kit, Molecular Probes) and detected using a luminescence plate reader (VICTOR X, Perkin Elmer #2030-0010). Standard curves were generated in each experiment from an ATP standard (500 nM) to quantify the concentration of ATP in the test samples. The data is presented as mean±standard error relative to the injury or injury-reperfusion control. Statistically significant differences between samples were identified using one-way analysis of variance and Tukey's multiple comparisons test.

The next data set concerns hCMVEC cells. The data set is described as follows: Scrape load assay (Lucifer yellow dye transfer). Type of data set: cell-based, human. As to conditions: broad spectrum gap-junction blocker, concentration not given. Here is the method:
In the below Examples 2, 4, 5, 8 and 10 using human cerebral microvascular endothelial cells (hCMVEC), cells were prepared by growing them in collagen coated (30 μg/mL) T25 or T75 flasks maintained in Medium M199 supplemented with 10% FCS, 1 μg/mL hydrocortisone, 3 ng/mL hFGF, 1 ng/mL hEGF, 10 μg/mL heparin, 1× penicillin streptomycin neomycin (Life Technologies), and cAMP (100 μL 100% cAMP to 100 mL media). Cells were maintained at 37° C. with 95% O2 and 5% CO2.
In this Example, human cerebral microvascular endothelial cells (hCMVEC) were grown in collagen coated (1 μg/mL) T25 flasks maintained in Medium M199 supplemented with 10% FBS, 1 μg/mL hydrocortisone, 3 ng/mL hFGF, 1 ng/mL hEGF, 10 μg/mL heparin and cAMP (100 μL 100% cAMP to 100 mL media) in a humidified atmosphere at 37° C. with 5% CO2. One day prior to experimentation, these cells were trypsinized and plated at a density of 4×10^5 cells/well in a collagen-coated 12 well-plate in the same medium. For treatments, cells were cultured in the presence of peptide5, a control gap junction channel blocker (carbenoxolone), or tonabersat for the respective time intervals prior to scrape dye loading. The blockers were also present in the respective scrape loading solutions.
For scrape loading the hCMVEC cells were washed three times with phosphate buffered saline (PBS) (without divalent cations). A solution of PBS+0.05% lucifer yellow was added to cells. The cells then received a scrape to the monolayer using a size 10 carbon steel surgical blade and incubated in the dark at 37° C. with 5% CO2 for 5 minutes. The cells were washed with PBS four times and then 1 mL of PBS added for fluorescent microscopy.
The live cells were then imaged on a Nikon TE2000E fluorescent microscope whilst maintained in a chamber heated to 37° C. with 5% CO2. Three images pairs were obtained at 10× magnification for each of a phase contrast image to view total cells and a fluorescent image to visualize Lucifer yellow using 488 nm excitation and a GFP filter block. Gap junctional communication was determined by counting the number of Lucifer yellow positive cells and presented as a percentage to the positive cells of the control group. Data was graphed as mean+standard error of the mean using Prism v5.02 software. Significance was determined through students two-tailed, unpaired, T Tests. *=p<0.05, **=[…], ***=p<0.001.
An in vitro scrape-loading assay with extracellular Lucifer Yellow (LY), a fluorescent dye that is transferred only through coupled GJs was performed to test whether Tonabersat inhibits GJ communication (M. H. el-Fouly, et al., Experimental cell research 168, 422 (February, 1987)). A single scrape wound was made to a confluent monolayer of hCMVEC cells to enable LY dye to gain access to the cytoplasm of cells at the edge of the wounded region and allow the dye to transfer to adjacent cells through GJs.

The conditions of data set [2]: bovine.
In data set [3] the test system is Cx43 hemichannel and pannexin channel mediated ATP release from hCMVEC cells. The data set is described as follows: In vitro ischaemia injury-reperfusion ATP assay. The format is cell-based, human. As to conditions: 2 h, 1000 µM. Here is the method:
as §2
Human cerebral microvascular endothelial cells (hCMVEC) were trypsinised (TrypLE Express, Life technologies) and plated at a density of 0.025×10^6 cells per well in a collagen-coated 12-well plate (1 μg/cm2) a day prior to the experiment. Cells were incubated in culture medium overnight. Hypoxic, acidic, ion-shifted Ringer injury solution that mimics ionic concentrations and acid-base shifts of the interstitial space in hypoxic-ischemic brains (A. Bondarenko, et al., Glia 34, 143 (Apr. 15, 2001)) was used to trigger hemichannel opening. […] ATP concentration in the samples was determined using a Luciferin/luciferase bioluminescence reaction (ATP Determination Kit, Molecular Probes) and detected using a luminescence plate reader (VICTOR X, Perkin Elmer #2030-0010). Standard curves were generated in each experiment from an ATP standard (500 nM) to quantify the concentration of ATP in the test samples. […]

Where a SMILES comes first, the peptide text is derived from it. Where no end group is shown, it is not given here. didodecyl = two dodecyl groups (C12-C12) conjugated at the N terminus

T1 sequence (P17302 2-382 limits assumed): as the sequence (P08050 2-382 limits assumed) above, with E123D, V163I, R242K, T250S, P252A, S256A, P262Q, A343S, V346L counted along it

Regarding “C12-C12 Cxn43 MP: connexin 43 modulator peptide conjugated at the N terminus to two dodecyl groups, SEQ ID NO: 237 (didodecyl-VDCFLSRPTEKT)”, in the data set on retinal vessel leak, the vessel leak entry is “reduction in vessel leak”. For the same compound, the Cxn43 spot counts result with Cxn43 was “reduced moreso”. The RGC survival entry in the data set with Retinal ganglion cell is recorded as “over 93%”.

On to `CC1(C)[C@@H](OC(=O)CCC(=O)O)CC[C@]2(C)[C@H]3C(=O)C=C4[C@@H]5C[C@@](C)(C(=O)O)CC[C@]5(C)CC[C@@]4(C)[C@]3(C)CC[C@@H]12` [Carbenoxolone], for which, on Connexin43 hemichannel, the Connexin43 hemichannel activity result was “virtually complete hemichannel block”. In addition, the “level of the inhibition of ATP release” value in data set [1] (ischemic injury) stood at 65%. For the same compound, the “LY positive cells compared to control” value in the data set on hCMVEC cells is recorded as 77.8±7.4%.

For orientation: half-life means the time needed for the level to fall by half in the phase considered. Higher therefore signals slow decline. In data set [2], `CC(C)C[C@H](NC(=O)[C@H](Cc1ccccc1)NC(=O)[C@H](CS)NC(=O)[C@H](CC(=O)O)NC(=O)[C@@H](N)C(C)C)C(=O)N[C@@H](CO)C(=O)N[C@@H](CCCNC(=N)N)C(=O)N1CCC[C@H]1C(=O)N[C@H](C(=O)N[C@@H](CCC(=O)O)C(=O)N[C@@H](CCCCN)C(=O)N[C@H](C(=O)O)[C@@H](C)O)[C@@H](C)O` [Peptide5] (H-VDCFLSRPTEKT-OH) gave a half-life of around 2 h.

With `CCCN(CCC)S(=O)(=O)c1ccc(C(=O)O)cc1` [Probenecid, p-[Dipropylsulfamoyl]benzoic acid], the “ATP release, percentage of the injury-reperfusion (IR) control” value in data set [3] is 99.3±4.4%. The “total extracellular ATP release, percentage of the injury control” value in data set [1] (2-hour injury, 100 μM Peptide5, 1 mM Probenecid, alone or combined) amounted to 83.1±4.5%.
